Data as given in patent publication US11304956B2, “Use of 7-bromo-5-(O-chlorophenyl)-3-propoxy-1,2-dihydro-3H-1,4-benzodiazepin-2-one for inhibition of neuropathic pain and seizures of different etiology” (priority 2016, dated 2022).

Key:
[1] = test system: pentylenetetrazole-induced convulsions; details: literature data; interval in brackets; cited from earlier work
MES-induced seizures = details: literature data; interval in brackets; cited from earlier work
formalin test in mice = experiment: Formalin test (licking time of the injected paw); assay type: in vivo, white male non-linear mice; details: 10.00 mg/kg intraperitoneally 40 min before formalin
[2] = test system: carrageenan rat paw edema; experiment: Carrageenan rat paw edema; assay type: in vivo, male white rats; details: 10.0 mg/kg intraperitoneally 40 min before carrageenan
Excerpt: Given the fact that Compound 1 affects not only the painful, but also the inflammatory phase, we undertook an in-depth study of its anti-inflammatory effect. The most common screening method of anti-inflammatory activity is the model of inflammatory edema of the rat hind paw, induced by the subplantar administration of various phlogogenic agents. Under the conditions of carrageenan administration, a sufficiently pronounced edema reaction is observed, which slowly develops and persists for a long time. The maximum size of edema is observed in 2-4 hours.
The anti-inflammatory properties of the test compounds were studied in the model of carrageenan rat paw edema. Male white rats weighing 150-180 g were used in the experiments. Before the administration of the experimental substances, the volumes of the rats' paws subsequently injected by phlogogen were measured. The test compounds and the reference drug—diclofenac-sodium, were administered intraperitoneally 40 minutes prior the inflammation induction. The control group of the rats received an equivalent amount of physiological solution in the emulsion with Tween-80. Acute aseptic inflammation was induced by a 1% aqueous solution of 0.1 ml)—carrageenan injection under plantar aponeurosis of the hind paw of animals of the experimental and control groups (see Trinus F. P. Nonsteroidal anti-inflammatory drugs/F. P. Trinus, N. A. Mohort, B. M. Klebanov//K., 1975, pp. 204-231., Winter C. A. Carrageenin—induced edema in hind paw of the rat as an assay for antiinflammatory drugs/C. A. Winter, E. A. Risley, G. V. Nuss//Proc. Soc. Exp. Biol. Med.—1962.—Vol. 111.—P. 544-547). The inflammatory reaction significance was evaluated after two and four hours after the phlogogen injection. Registration of edema size was carried out by mechanical measurement of foot volume in dynamics according to Zakharevsky A. S. (see Zaharevskiy A. S. The influence of some indole derivatives on the nervous system. Diss. cand. med. science/Zaharevskiy Aleksandr Stepanovich-Minsk.—1969.—78-80 p.). The edema extent was estimated according to the difference in volume between the swollen paw and the paw before inflammation induction. The anti-inflammatory efficacy of the test compounds was determined as the ability of the test compounds to suppress the inflammatory response in the experimental animals compared to the control animals and expressed as a percentage. The calculation was carried out according to the following formula:
The percentage of inflammation suppression=(ΔVκ−ΔV ? /ΔVκ)·100%,
where: ΔVκ—the average increase in the volume of the swollen paw in the control;
ΔV ? —the average increase in the volume of the swollen paw in animals injected by experimental substances.

[3] = test system: pentylenetetrazole-induced convulsions; experiment: Pentylenetetrazole-induced seizures; assay type: in vivo, non-linear male mice; details: mice; subcutaneously; dose-effect relationship of the seizure agent
Excerpt: In many cases, the presence of anticonvulsant (antiepileptic) effect of the compounds correlates with analgesic properties on corresponding models of neuralgia. As a general step is a primary screening of new anticonvulsant compounds on rodents with the help of pentylenetetrazole test and MES (maximal electroshock seizures) as they have a qualitative difference in development and manifestations of seizures. It is believed that the compound ability to prevent the MES-induced seizures is connected with impulse spread inhibition throughout the central nervous system. It is believed that the ability to prevent the MES-induced seizures development indicates the potential efficacy of the compound in the preventing propagation of a pulse along the neural tissue (see Tompson E. Medicines. Bioscreening/Under the editorship of A. V. Stefanova.-K.: Avitsenna, 1998.—250 p.).
The experiments were performed on non-linear male mice weighing 19-29 g. Pentylenetetrazole was administered subcutaneously in the cervical region of the back. […]
For MES-induced seizures experimental animals were exposed to electric stimulation through the corneal electrodes (50 Hz, 50 mA for mice during 0.2 s). The number of animals with the maximum tonic extension of the hind limbs, which occurs in almost 100% of the animals in the control group, was calculated. […]

[4] = test system: thermal tail flick test in rats; experiment: Model of thermal stimulation (tail-flick); assay type: in vivo; details: n=10
Excerpt: The problem was solved by experimental study of the antinociceptive action of the test compound 1 on the model of NP in rats and on the model of pain with the participation of central mechanisms, in particular, thermal tail flick test in rats. Based on the available data on the positive response of constant pain to anticonvulsants in the acute and paroxysmal phase and considering structure 1, we performed an evaluation of the anticonvulsant action of the compound on models of pentamethylenetetrazol-induced convulsions and seizures caused by maximal electroshock (MES). We have taken into account the possible side reaction (ulcerogenic effect) of the compound in experimental animals, expressed in the formation of defects in the mucous membrane of the gastrointestinal tract or in provocation of already existing peptic ulcer relapses. The probability of ulcers formation of medicinal origin is especially high during administration of non-steroidal anti-inflammatory drugs in high doses and in combination with their long-term use in the form of tablets.
A more pronounced effect was after parenteral administration (see Table 2). Control: solvent (twin, distilled water, pH-corrector). Results of the study of Compound 1 and ketorolac analgesic effects on the model of thermal stimulation (tail-flick) as degree of pain sensitivity threshold increase in relation to the initial level (%), n=10, are given in Table 2.

[5] = test system: model of neuropathic pain in rats; experiment: Model of neuropathic pain (sciatic nerve ligation), threshold of pain sensitivity by dolorimeter; assay type: in vivo, male Wistar rats; details: for Changes in the threshold of pain perception, regarding healthy limb: damaged vs healthy limb before administration (baseline); for Threshold of pain sensitivity, damaged limb / Threshold of pain sensitivity, healthy limb: day 14 after ligation, before administration (baseline), M±m, n=10; for Pain perception threshold changes, regarding pathology before administration of compounds / Threshold of pain sensitivity 2 hours after compounds administration: 2 hours; for Threshold of pain sensitivity 2 hours after compounds administration: damaged limb
Method: An evaluation of the antinociceptive action of the test compound (1) on a model of neuropathic pain was carried out on 50 male Wistar rats weighing 270-310 g. The model of neuropathic pain was reproduced by ligation of the sciatic nerve at the level of the upper third of the thigh at the level of the popliteal fossa higher than the site of its trifurcation by N. tibialis, N. peroneus and N. suralis (see Mironov A. N. et al. Guidelines for conducting preclinical studies of drugs. Part one.—Moscow 2012. p. 197-219). The development of the pathological process lasted 14 days. The degree of hyperalgesia was determined using a dolorimeter (Dolorimeter Baseline, USA) by determining the threshold of pain sensitivity (TPS)—the minimum pressure on the lower surface of the rat's foot (g/mm^2), which caused pain in the animal (vocalization and/or withdrawal of the foot). Each animal was given 5 attempts; the threshold value was taken with such a pressure force, which caused a positive response in at least one attempt. The threshold of pain sensitivity was compared on intact and damaged limbs on day 14 after ligation (pathology without treatment), as well as on the injured limb after 2 hours (peak of action) after the drugs administration. The test compound and the reference drug (ketorolac) were administered intragastrally (as gavage) once at doses of 0.5 and 3 mg/kg. Sciatic nerve ligation in animals caused the development of neuropathic pain syndrome, which manifested itself in behavioral reactions of the rat and lowering the threshold of pain sensitivity by an average of 44-48% (see Table 1). The analgesic effect of Compound 1 compared with ketorolac under the conditions of their intragastral administration on the model of neuropathic pain in rats (M±m, n=10, where n is the number of animals in the experiments) is shown in Table 1.

[6] = according to the literature data for ketorolac; cited from earlier work

NCC1(CC(=O)O)CCCCC1 [Gabapentin, gabapentin]
Anticonvulsive activity (ED50), Pentylenetetrazole [1]: 32 (50-200) mg/kg
Anticonvulsive activity (ED50), MES (MES-induced seizures): 19 (16-24) mg/kg

O=C(O)Cc1ccccc1Nc1c(Cl)cccc1Cl [Diclofenac-sodium, diclofenac-sodium, reference compound]
I phase, % effect (decrease in the time of licking of the paw) (formalin test in mice; phase 0-5 min): 51.00 ± 11.64 %
II phase, effect (decrease in the time of licking of the paw) (formalin test in mice; phase 15-40 min): 53.60 ± 11.02
Inhibition of edema in 2 hours (%) [2]: 43.0 ± 7.0 %
Inhibition of edema in 4 hours (%) [2]: 57.10 ± 8.3 %

C1CCc2nnnn2CC1 [pentylenetetrazole, reference compound]
ED95 of pentylenetetrazole (seizure agent) [3]: 120 mg/kg

O=C(c1ccccc1)c1ccc2n1CCC2C(=O)O (stereo not drawn) [Ketorolac, ketorolac]
Degree of pain sensitivity threshold increase in relation to the initial level ([4]; 0.5 mg/kg orally, 1 hour): +7.5%
Degree of pain sensitivity threshold increase in relation to the initial level ([4]; 0.5 mg/kg orally, 2 hours): +14.6%
Degree of pain sensitivity threshold increase in relation to the initial level ([4]; 0.5 mg/kg orally, 4 hours): +28.6%
Degree of pain sensitivity threshold increase in relation to the initial level ([4]; 0.5 mg/kg orally, 6 hours): +12.1%
Degree of pain sensitivity threshold increase in relation to the initial level ([4]; 3 mg/kg orally, 1 hour): +43.4%
Degree of pain sensitivity threshold increase in relation to the initial level ([4]; 3 mg/kg orally, 2 hours): +75.7%
Degree of pain sensitivity threshold increase in relation to the initial level ([4]; 3 mg/kg orally, 4 hours): +65.7%
Degree of pain sensitivity threshold increase in relation to the initial level ([4]; 3 mg/kg orally, 6 hours): +28.1%
Changes in the threshold of pain perception, regarding healthy limb ([5]; 0.5 mg/kg group): −47.3 ± 3.9%
Threshold of pain sensitivity, damaged limb ([5]; 0.5 mg/kg group): 287.9 ± 19.85 g/mm^2
Threshold of pain sensitivity, healthy limb ([5]; 0.5 mg/kg group): 550.0 ± 19.0 g/mm^2
Pain perception threshold changes, regarding pathology before administration of compounds ([5]; 0.5 mg/kg intragastrally once): +24.6 ± 5.2%
Pain perception threshold changes, regarding pathology before administration of compounds ([5]; 0.5 mg/kg intragastrally once, listed as ketorolac): +24.6%
Threshold of pain sensitivity 2 hours after compounds administration ([5]; 0.5 mg/kg intragastrally once): 355.0 ± 19.5 g/mm^2
Changes in the threshold of pain perception, regarding healthy limb ([5]; 3 mg/kg group): −45.7 ± 3.5%
Threshold of pain sensitivity, damaged limb ([5]; 3 mg/kg group): 296.4 ± 19.6 g/mm^2
Threshold of pain sensitivity, healthy limb ([5]; 3 mg/kg group): 547.1 ± 15.1 g/mm^2
Pain perception threshold changes, regarding pathology before administration of compounds ([5]; 3 mg/kg intragastrally once): +70.1 ± 6.2%
Pain perception threshold changes, regarding pathology before administration of compounds ([5]; 3 mg/kg intragastrally once, listed as ketorolac): +70.1%
Threshold of pain sensitivity 2 hours after compounds administration ([5]; 3 mg/kg intragastrally once): 501.4 ± 34.9 g/mm^2
ED50 (analgesic effect) [6]: 3 mg/kg

CC(C)C[C@H](CN)CC(=O)O [Pregabalin, pregabalin]
Anticonvulsive activity (ED50), Pentylenetetrazole [1]: 31 (16-62) mg/kg
Anticonvulsive activity (ED50), MES (MES-induced seizures): 73 (57-93) mg/kg
